Biological target: T1, BTK protein (Homo sapiens, UniProt Q06187)
T1 construct: endogenous in cells; host or cells: TMD-8 cells
Test: Measurement of BTK protein degradation ability in TMD-8 cells (Western blotting)
Assay type: cell-based
Conditions: harvested after 24 hours; for BTK degradation (%) 1 nM: compound 1 nM; for BTK degradation (%) 10 nM: compound 10 nM; for BTK degradation (%) 100 nM: compound 100 nM
How it was run: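 TMD-8 cells (1×10^6/mL) were treated for 24 h with compound at 0.1, 1, 10 μM or 0.0001–0.1 μM, with DMSO as vehicle control. RIPA lysates were normalized by BCA assay. BTK was detected by Western blot with anti-BTK, using GAPDH or β-actin as loading controls, and imaged on LI-COR Odyssey.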

T1 sequence (Q06187 whole entry): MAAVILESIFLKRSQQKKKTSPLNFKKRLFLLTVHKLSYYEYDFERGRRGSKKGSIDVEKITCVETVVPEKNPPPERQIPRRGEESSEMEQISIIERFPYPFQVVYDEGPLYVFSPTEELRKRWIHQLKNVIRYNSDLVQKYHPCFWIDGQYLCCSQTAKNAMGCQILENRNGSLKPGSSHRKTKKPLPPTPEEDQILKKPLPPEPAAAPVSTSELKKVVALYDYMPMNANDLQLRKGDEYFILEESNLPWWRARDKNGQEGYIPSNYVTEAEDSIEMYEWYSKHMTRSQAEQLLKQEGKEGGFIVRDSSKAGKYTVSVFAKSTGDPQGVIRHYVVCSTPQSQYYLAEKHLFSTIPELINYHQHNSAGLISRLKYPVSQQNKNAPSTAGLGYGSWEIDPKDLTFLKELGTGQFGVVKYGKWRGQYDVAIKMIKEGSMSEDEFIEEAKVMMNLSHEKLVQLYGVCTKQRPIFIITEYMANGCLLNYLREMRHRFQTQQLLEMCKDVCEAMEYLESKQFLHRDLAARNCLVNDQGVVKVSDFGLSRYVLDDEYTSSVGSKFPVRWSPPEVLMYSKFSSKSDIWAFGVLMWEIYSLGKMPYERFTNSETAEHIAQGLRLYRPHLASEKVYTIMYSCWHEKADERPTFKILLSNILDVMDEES

Structure (SMILES) | BTK degradation (%) 1 nM | BTK degradation (%) 10 nM | BTK degradation (%) 100 nM
Cc1cc(-c2ccnc(Nc3ccc(N4CCN(CC5(C)CN(c6ccc7c(c6)C(=O)N(C6CCC(=O)NC6=O)C7=O)C5)CC4)cc3)n2)ccc1CNC(=O)N1CC(OC(C)C)C1 (centres unmarked) [Example 14, N-(4-(2-((4-(4-((1-(2-(2,6-dioxopiperidin-3-yl)-1,3-dioxoisoindolin-5-yl)-3-methylazetidin-3-yl)methyl)piperazin-1-yl)phenyl)amino)pyrimidin-4-yl)-2-methylbenzyl)-3-isopropoxyazetidine-1-carboxamide] | 20% | 85.5% | 98%
Cc1cc(-c2ccnc(Nc3ccc(N4CCN(CC5CCN(c6cccc(N7CCC(=O)NC7=O)c6)CC5)CC4)nc3)n2)ccc1CNC(=O)c1cn(C(C)(C)C)nn1 [Example 76] | 55.0% | 96.5% | 100.0%
Cc1cc(NC(=O)N2CC(OC(C)C)C2)cc(-c2ccnc(Nc3ccc(N4CCN(CC5CCN(c6ccc7c(c6)C(=O)N(C6CCC(=O)NC6=O)C7=O)CC5)CC4)cc3)n2)c1 (centres unmarked) [Example 29, N-(3-(2-((4-(4-((1-(2-(2,6-dioxopiperidin-3-yl)-1,3-dioxoisoindolin-5-yl)piperidin-4-yl)methyl)piperazin-1-yl)phenyl)amino)pyrimidin-4-yl)-5-methylphenyl)-3-isopropoxyazetidine-1-carboxamide] | 7% | 40.5% | 81.5%

The remaining lines, values ahead:

BTK degradation (%) 1 nM | BTK degradation (%) 10 nM | BTK degradation (%) 100 nM | Structure (SMILES)
61.5% | 95.0% | 99.5% | Cc1cc(-c2ccnc(Nc3ccc(CN4CCN(CC5CCN(c6cccc(NC7CCC(=O)NC7=O)c6)CC5)CC4)cc3)n2)ccc1CNC(=O)c1cn(C(C)(C)C)nn1 (centres unmarked) [Example 69, 1-(tert-butyl)-N-(4-(2-((4-((4-((1-(3-((2,6-dioxopiperidin-3-yl)amino)phenyl)piperidin-4-yl)methyl)piperazin-1-yl)methyl)phenyl)amino)pyrimidin-4-yl)-2-methylbenzyl)-1H-1,2,3-triazole-4-carboxamide]
46.5% | 92.0% | 98.5% | Cc1cc(-c2ccnc(Nc3ccc(C4CCN(CC5CCN(C(=O)c6cccc(NC7CCC(=O)NC7=O)c6)CC5)CC4)cc3)n2)ccc1CNC(=O)N1CC(OC(C)C)C1 (centres unmarked) [Example 99, N-(4-(2-((4-(1-((1-(3-((2,6-dioxopiperidin-3-yl)amino)benzoyl)piperidin-4-yl)methyl)piperidin-4-yl)phenyl)amino)pyrimidin-4-yl)-2-methylbenzyl)-3-isopropoxyazetidine-1-carboxamide]
 | −3.5% | 29% | Cc1c(NC(=O)N2CC(OC(C)C)C2)cc(F)cc1-c1ccnc(Nc2ccc3c(c2)CN(CC2CCN(c4ccc5c(c4)C(=O)N(C4CCC(=O)NC4=O)C5=O)CC2)CC3)n1 (centres unmarked) [Example 4, N-(3-(2-((2-((1-(2-(2,6-dioxopiperidin-3-yl)-1,3-dioxoisoindolin-5-yl)piperidin-4-yl)methyl)-1,2,3,4-tetrahydroisoquinolin-7-yl)amino)pyrimidin-4-yl)-5-fluoro-2-methylphenyl)-3-isopropoxyazetidine-1-carboxamide]
62.0% | 94.5% | 98.5% | Cc1cc(-c2ccnc(Nc3ccc(N4CCN(CC5CCN(C(=O)c6cccc(NC7CCC(=O)NC7=O)c6)CC5)CC4)cc3)n2)ccc1CNC(=O)c1cnn(C(C)C)c1 (centres unmarked) [Example 93, N-(4-(2-((4-(4-((1-(3-((2,6-dioxopiperidin-3-yl)amino)benzoyl)piperidin-4-yl)methyl)piperazin-1-yl)phenyl)amino)pyrimidin-4-yl)-2-methylbenzyl)-1-isopropyl-1H-pyrazole-4-carboxamide]

Reference: US20250041429A1, “COMPOUND HAVING BTK PROTEIN DEGRADATION ACTIVITY, AND MEDICAL USES THEREOF” (UBIX THERAPEUTICS, INC., priority 2021, published 2025)
